{
  "source": "BindingDB's records for doi:10.1021/jm0503244",
  "about": "(Merck Research Laboratories, 2005)",
  "experiment_in_all_cases": "S1P Receptor Binding Assay",
  "key": {"[1]": {"target": "Sphingosine 1-phosphate receptor 3 (Homo sapiens, UniProt Q99500)", "sequence (Q99500 whole entry)": "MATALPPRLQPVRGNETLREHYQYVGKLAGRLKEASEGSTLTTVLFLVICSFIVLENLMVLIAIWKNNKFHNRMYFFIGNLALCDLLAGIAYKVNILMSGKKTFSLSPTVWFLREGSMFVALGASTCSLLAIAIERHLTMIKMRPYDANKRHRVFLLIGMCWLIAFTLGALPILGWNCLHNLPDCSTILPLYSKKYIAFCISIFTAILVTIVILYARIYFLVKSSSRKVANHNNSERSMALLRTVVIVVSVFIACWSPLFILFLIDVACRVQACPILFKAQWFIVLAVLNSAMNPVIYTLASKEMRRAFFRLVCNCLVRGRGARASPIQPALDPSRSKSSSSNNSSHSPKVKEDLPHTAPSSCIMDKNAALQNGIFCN", "details": "pH 7.5; 22 °C", "experimental": "(§1) The assay measures the displacement of [33P]-labeled sphingosine-1-phosphate (S1P) by test compounds from human S1P receptors expressed on CHO cell membranes. Binding was performed for 60 min at room temperature and terminated by collecting the membranes onto GF/B filter plates with a Packard Filtermate Universal Harvester. Filter bound radionuclide was measured on a PerkinElmer 1450 MicroBeta. Specific binding was calculated by subtracting radioactivity that remained in the presence of 1000-fold excess of unlabeled S1P."}, "[2]": {"target": "Sphingosine 1-phosphate receptor 5 (Homo sapiens, UniProt Q9H228)", "sequence (Q9H228 whole entry)": "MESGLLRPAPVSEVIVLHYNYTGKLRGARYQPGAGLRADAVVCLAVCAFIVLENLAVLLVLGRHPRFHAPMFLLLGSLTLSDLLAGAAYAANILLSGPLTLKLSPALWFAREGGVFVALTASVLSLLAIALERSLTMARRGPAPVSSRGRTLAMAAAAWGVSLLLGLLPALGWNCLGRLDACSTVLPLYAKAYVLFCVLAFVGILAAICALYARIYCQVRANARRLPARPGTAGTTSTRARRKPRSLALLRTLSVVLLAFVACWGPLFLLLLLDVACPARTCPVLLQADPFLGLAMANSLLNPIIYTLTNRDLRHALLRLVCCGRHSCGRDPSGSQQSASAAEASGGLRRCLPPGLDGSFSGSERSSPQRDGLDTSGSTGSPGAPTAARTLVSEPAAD", "details": "25 °C", "experimental": "as §1"}, "[3]": {"target": "T1, Sphingosine 1-phosphate receptor 4 (Homo sapiens, UniProt O95977)", "T1 sequence (O95977 whole entry)": "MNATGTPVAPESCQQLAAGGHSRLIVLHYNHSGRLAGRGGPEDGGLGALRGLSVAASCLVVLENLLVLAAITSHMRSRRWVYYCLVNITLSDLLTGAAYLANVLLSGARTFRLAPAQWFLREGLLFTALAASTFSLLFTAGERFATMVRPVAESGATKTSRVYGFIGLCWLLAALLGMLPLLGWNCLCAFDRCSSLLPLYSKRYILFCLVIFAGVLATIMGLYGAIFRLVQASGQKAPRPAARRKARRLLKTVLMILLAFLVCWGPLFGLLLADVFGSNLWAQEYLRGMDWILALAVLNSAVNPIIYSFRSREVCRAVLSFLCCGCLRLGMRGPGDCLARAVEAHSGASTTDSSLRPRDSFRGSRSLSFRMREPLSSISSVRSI", "details": "25 °C", "experimental": "as §1"}},
  "data": [
    {"smiles": "CC(C)(C)Cc1ccc(-c2nc(-c3ccc(CN4CC(C(=O)O)C4)cc3)no2)cc1", "note": "[1-[(4-{5-[4-(2,2-dimethylpropyl)phenyl]-1,2,4-oxadiazol-3-yl}phenyl)methyl]azetidine-3-carboxylic acid]", "values": [
      {"measurement": "IC50", "setting": "[1]", "result": 10000, "unit": "nM"}
    ]},
    {"smiles": "CCCCc1ccc(-c2nc(-c3ccc(CN4CC(C(=O)O)C4)cc3)no2)cc1", "note": "[1-({4-[5-(4-butylphenyl)-1,2,4-oxadiazol-3-yl]phenyl}methyl)azetidine-3-carboxylic acid]", "values": [
      {"measurement": "IC50", "setting": "[2]", "result": 2.4, "unit": "nM"},
      {"measurement": "IC50", "setting": "[3]", "result": 350, "unit": "nM"}
    ]},
    {"smiles": "CCC(C)(C)c1ccc(-c2nc(-c3ccc(CN4CC(C(=O)O)C4)cc3)no2)cc1", "note": "[1-[(4-{5-[4-(2-methylbutan-2-yl)phenyl]-1,2,4-oxadiazol-3-yl}phenyl)methyl]azetidine-3-carboxylic acid]", "values": [
      {"measurement": "IC50", "setting": "[1]", "result": 3090, "unit": "nM"}
    ]}
  ]
}
